Assay results: patent publication US9890138B2, “Diaminopyrimidine derivatives and processes for the preparation thereof” (YUHAN CORPORATION, priority 2011, dated 2018)
Where a name gives a salt, the structure may show the parent alone.

Molecular target: T1, human 5-HT4(a) (Homo sapiens, UniProt Q13639)
T1 construct: host or cells: GeneBlAzer HTR4-CRE-bla CHO-K1 cells
Assay: Evaluation of agonistic activity in CHO-K1 cells expressing human 5-HT4(a) (GeneBlAzer HTR4-CRE-bla CHO-K1, beta-lactamase reporter)
Format: cell-based
Conditions: CHO-K1 cells stably expressing human 5-HT4(a)
In short: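 Agonism read as CRE-driven β-lactamase activity: emission ratio 465/535 nm (excitation 410 nm) after 2 h substrate loading. Preceded by 5 h compound treatment, 8 concentrations, 1% DMSO in the added solution, of overnight-plated reporter CHO-K1 cells; EC50 by non-linear regression.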

T1 sequence (Q13639 1-387 isoform Q13639-2): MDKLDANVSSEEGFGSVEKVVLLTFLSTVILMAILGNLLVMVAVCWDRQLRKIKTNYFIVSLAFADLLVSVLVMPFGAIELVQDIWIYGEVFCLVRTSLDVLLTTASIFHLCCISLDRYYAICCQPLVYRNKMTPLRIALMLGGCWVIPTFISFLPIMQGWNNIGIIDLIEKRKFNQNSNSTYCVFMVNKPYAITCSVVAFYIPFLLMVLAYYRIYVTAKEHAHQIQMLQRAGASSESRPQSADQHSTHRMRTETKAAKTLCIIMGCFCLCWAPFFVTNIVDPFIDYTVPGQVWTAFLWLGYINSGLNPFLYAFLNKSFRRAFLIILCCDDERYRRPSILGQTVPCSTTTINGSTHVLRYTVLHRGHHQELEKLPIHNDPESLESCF

Compound | EC50
CCCc1cc(N2CCC[C@H]2COC)nc(Nc2cccc(C(F)(F)F)c2)n1 [Example 36, (S)-4-[2-(methoxymethyl)pyrrolidin-1-yl]-6-propyl-N-[3-(trifluoromethyl)phenyl]pyrimidin-2-amine] | 0.243 nM
CCCc1cc(N2CC[C@H](NC(=O)CN(C)C)C2)nc(Nc2cccc(C#N)c2)n1 [Example 160] | 0.121 nM
CCCc1cc(N2CC[C@H](NCC3CC3)C2)nc(Nc2ccc(F)c(C(F)(F)F)c2)n1 [Example 382] | 0.0051 nM
CCCc1cc(N2CCC[C@H]2COC)nc(Nc2ccc(C)c(C#N)c2)n1 [Example 44, (S)-5-{4-[2-(methoxymethyl)pyrrolidin-1-yl]-6-propylpyrimidin-2-ylamino}-2-methylbenzonitrile] | 0.022 nM
CCCCc1cc(N2CC[C@H](NCC)C2)nc(Nc2ccc(F)c(N)c2)n1 [Example 470] | 0.0025 nM
CCCCc1cc(N2CC[C@H](NC(C)C)C2)nc(Nc2cccc(C#N)c2)n1 [Example 235] | 0.0023 nM
CCCCc1cc(N2CC[C@H](NCC)C2)nc(Nc2cc(N)cc(C#N)c2)n1 [Example 465] | 0.0022 nM
CCCc1cc(N2CC[C@H](NC)C2)nc(Nc2cc(N)cc(C#N)c2)n1 [Example 485] | 0.0024 nM
CCCc1cc(N2CC[C@H](N)C2)nc(Nc2cccc(SC)c2)n1 [Example 345, (S)-4-(3-aminopyrrolidin-1-yl)-N-[3-(methylthio)phenyl]-6-propylpyrimidin-2-amine dihydrochloride] | 0.062 nM
CCCCc1cc(N2CC[C@H](NCC)C2)nc(Nc2ccc(Cl)c([N+](=O)[O-])c2)n1 [Example 464] | 0.0039 nM
CCCc1cc(N2CC[C@H](NCc3ccc(OC)cc3)C2)nc(Nc2cccc(C#N)c2)n1 [Example 97, (S)-3-{4-[3-(4-methoxybenzylamino)pyrrolidin-1-yl]-6-propylpyrimidin-2-ylamino}benzonitrile] | 0.046 nM
CCCc1cc(N2CC[C@H](N)C2)nc(Nc2cccc(C#N)c2)n1 [Example 60, (S)-3-[4-(3-aminopyrrolidin-1-yl)-6-propylpyrimidin-2-ylamino]benzonitrile dihydrochloride] | 0.047 nM
CCCc1cc(N2CC[C@H](NC3CCCCCCC3)C2)nc(Nc2cccc(C#N)c2)n1 [Example 141, (S)-3-{4-[3-(cyclooctylamino)pyrrolidin-1-yl]-6-propylpyrimidin-2-ylamino}benzonitrile] | 0.085 nM
CCCc1cc(N2CC[C@H](NCC3CC3)C2)nc(Nc2cccc(C(F)(F)F)c2)n1 [Example 379] | 0.0098 nM
CCCc1cc(N2CCC[C@H]2C)nc(Nc2ccc3cc[nH]c3c2)n1 [Example 315] | 0.028 nM
CCCCC(C)N[C@H]1CCN(c2cc(CCC)nc(Nc3cccc(C#N)c3)n2)C1 (stereo partly drawn) [Example 133, (S)-3-{4-[3-(n-hexan-2-ylamino)pyrrolidin-1-yl]-6-propylpyrimidin-2-ylamino}benzonitrile] | 0.039 nM
CCCc1cc(N2CC[C@H](NC(=O)Cc3cccs3)C2)nc(Nc2cccc(C#N)c2)n1 [Example 80, (S)-N-{1-[2-(3-cyanophenylamino)-6-propylpyrimidin-4-yl]pyrrolidin-3-yl}-2-(thiophen-2-yl)acetamide] | 0.17 nM
CCCc1cc(N2CC[C@H](NCc3ccc(F)cc3)C2)nc(Nc2cccc(C#N)c2)n1 [Example 98, (S)-3-{4-[3-(4-fluorobenzylamino)pyrrolidin-1-yl]-6-propylpyrimidin-2-ylamino}benzonitrile] | 0.094 nM
CCCc1cc(N2CCC[C@H]2CO)nc(Nc2cccc(C#N)c2)n1 [Example 194, (S)-3-{4-[2-(hydroxymethyl)pyrrolidin-1-yl]-6-propylpyrimidin-2-ylamino}benzonitrile] | 0.2 nM
CCCc1cc(N2CCC[C@H]2C)nc(Nc2ccc(C)c([N+](=O)[O-])c2)n1 [Example 321, (R)—N-(4-methyl-3-nitrophenyl)-4-(2-methylpyrrolidin-1-yl)-6-propylpyrimidin-2-amine] | 0.044 nM

Compound | EC50
CCCc1cc(N2CC[C@H](NCC3CC3)C2)nc(Nc2ccc(Cl)c([N+](=O)[O-])c2)n1 [Example 372] | 0.0046 nM
CCCc1cc(N2CC[C@H](NCC)C2)nc(Nc2ccc(N)c([N+](=O)[O-])c2)n1 [Example 176] | 0.018 nM
CCCc1cc(N2CC[C@H](NC(=O)Cc3ccncc3)C2)nc(Nc2ccc(C)c(C#N)c2)n1 [Example 429] | 0.025 nM
CCCc1cc(N2CCC[C@H]2C)nc(Nc2ccc(Cl)c(N)c2)n1 [Example 332] | 0.046 nM
CCCc1cc(N2CCC[C@H]2C)nc(Nc2cccc(C#N)c2)n1 [Example 53, (R)-3-[4-(2-methylpyrrolidin-1-yl)-6-propylpyrimidin-2-ylamino]benzonitrile] | 0.098 nM
CCCN[C@H]1CCN(c2cc(CCC)nc(Nc3cccc(C#N)c3)n2)C1 [Example 85, (S)-3-{4-propyl-6-[3-(propylamino)pyrrolidin-1-yl]pyrimidin-2-ylamino}benzonitrile] | 0.003 nM
CCCc1cc(N2CC[C@H](NC(C)=O)C2)nc(Nc2ccc(C)c(C#N)c2)n1 [Example 252, (S)—N-{1-[2-(3-cyano-4-methylphenylamino)-6-propylpyrimidin-4-yl]pyrrolidin-3-yl}acetamide] | 0.0052 nM
CCCc1cc(N2CCC[C@H]2CO)nc(Nc2ccc3cc[nH]c3c2)n1 [Example 185] | 0.015 nM
CCCCc1cc(N2CC[C@H](NCC)C2)nc(Nc2ccc(Cl)c(N)c2)n1 [Example 471] | 0.0033 nM
CCCc1cc(N2CC[C@H](NC(=O)COCc3ccccc3)C2)nc(Nc2cccc(C#N)c2)n1 [Example 158] | 0.436 nM
CCCc1cc(N2CC[C@H](NC)C2)nc(Nc2ccc3cc[nH]c3c2)n1 [Example 121, (S)-N-{4-[3-(methylamino)pyrrolidin-1-yl]-6-propylpyrimidin-2-yl}-1H-indol-6-amine] | 0.005 nM
CCCc1cc(N2CC[C@H](NC(C)=O)C2)nc(Nc2ccc3c(C)cc(=O)oc3c2)n1 [Example 245] | 0.053 nM
CCCc1cc(N2CC[C@H](NCc3ccc(CC)cc3)C2)nc(Nc2cccc(C#N)c2)n1 [Example 92, (S)-3-{4-[3-(4-ethylbenzylamino)pyrrolidin-1-yl]-6-propylpyrimidin-2-ylamino}benzonitrile] | 0.057 nM
CCCc1cc(N2CC[C@H](NC(=O)CO)C2)nc(Nc2cccc(C#N)c2)n1 [Example 157, (S)-N-{1-[2-(3-cyanophenylamino)-6-propylpyrimidin-4-yl]pyrrolidin-3-yl}-2-hydroxyacetamide] | 0.044 nM
CCCc1cc(N2CCC(NC)C2)nc(Nc2cccc(C#N)c2)n1 (stereo not drawn) [Example 59, 3-{4-[3-(methylamino)pyrrolidin-1-yl]-6-propylpyrimidin-2-ylamino}benzonitrile dihydrochloride] | 0.028 nM
(S)-3-amino-5-[4-(3-aminopyrrolidin-1-yl)-6-propylpyrimidin-2-amino]benzonitrile [Example 362] | 0.0021 nM
CCCc1cc(N2CC[C@H](NC(=O)CO)C2)nc(Nc2ccc(F)c(C(F)(F)F)c2)n1 [Example 477] | 0.0096 nM
CCCc1cc(N2CC[C@H](N)C2)nc(Nc2cc(Cl)ccc2C)n1 [Example 348, (S)-4-(3-aminopyrrolidin-1-yl)-N-(5-chloro-2-methylphenyl)-6-propylpyrimidin-2-amine dihydrochloride] | 0.019 nM
CCCc1cc(N2CC[C@H](NC(C)=O)C2)nc(Nc2cc(N)cc(C#N)c2)n1 [Example 262] | 0.0039 nM
